What is called IC50 is the point on the concentration scale where inhibition reaches its midpoint.

Where two headings read alike, the source gives them in different places. A value given as a limit tells only on which side of the number the result lay.

Experiment [1] has as its target T1, SHP-2 enzyme (Met1-Leu525) (Homo sapiens, UniProt Q06124).
T1 construct: synthetized by Origene, Met1-Leu525, cat #TP750155; purchased Origene TP750155
T1 sequence (Q06124 1-525): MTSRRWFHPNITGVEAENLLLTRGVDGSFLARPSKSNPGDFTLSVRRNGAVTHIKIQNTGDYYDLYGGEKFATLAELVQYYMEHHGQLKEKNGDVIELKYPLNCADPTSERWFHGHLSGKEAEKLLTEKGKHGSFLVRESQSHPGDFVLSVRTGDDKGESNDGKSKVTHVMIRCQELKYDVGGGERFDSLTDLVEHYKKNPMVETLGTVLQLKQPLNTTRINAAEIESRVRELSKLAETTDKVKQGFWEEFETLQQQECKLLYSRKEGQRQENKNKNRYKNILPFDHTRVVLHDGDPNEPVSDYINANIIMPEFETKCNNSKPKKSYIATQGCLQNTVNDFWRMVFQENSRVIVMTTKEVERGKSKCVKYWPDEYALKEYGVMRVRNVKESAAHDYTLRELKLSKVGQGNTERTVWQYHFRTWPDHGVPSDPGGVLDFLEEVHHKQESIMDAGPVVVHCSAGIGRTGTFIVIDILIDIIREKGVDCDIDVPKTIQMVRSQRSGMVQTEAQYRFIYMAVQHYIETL
In words: SHP2 inhibition enzymatic assay (DiFMUP substrate, IRS1 peptide activation). The experiment is classed as biochemical. The following applies: SHP2 wt; activated by 500 nM IRS1 peptide; 75 μM DiFMUP substrate. The method, boiled down: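 SHP-2 (Met1-Leu525, 0.5 nM final) preincubated 30 min with compounds and IRS1 activating peptide in HEPES pH 7.2 buffer with NaCl, KCl, EDTA, tween-20, 5 mM DTT. DiFMUP then added for 30 min at room temperature and fluorescence read. IC50 from four-parameter logistic fit of % inhibition.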

Experiment [2] concerns ERK phosphorylation in KYSE-520 cells. The experiment is described as follows: Phospho-ERK cellular assay (Advanced phospho-ERK1/2 (Thr202/Tyr204) TR-FRET kit). The experiment is classed as cell-based. To be noted: KYSE-520 cells, 2 h at 37° C., TR-FRET, read-out: pERK IC50. In a few lines:
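IC50 values are inflection points of four-parameter logistic fits of percent activity against compound dilution. Compound exposure lasted 2 h at 37° C in KYSE-520 cells. Lysates were probed overnight with Eu-cryptate/d2 antibodies to ERK1/2 phosphorylated at Thr202/Tyr204, so reduced TR-FRET indicates SHP2 inhibition.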
(TR-FRET usually uses a lanthanide donor and a delayed reading to cut background.)

For the molecule `Nc1nccc(Sc2cnc3nc(N4CCC5(CC4)Cc4cccc(F)c4[C@H]5N)[nH]c3n2)c1Cl` [Example 203, (S)-1′-(6-((2-amino-3-chloropyridin-4-yl)thio)-1H-imidazo[4,5-b]pyrazin-2-yl)-7-fluoro-1,3-dihydrospiro[indene-2,4′-piperidin]-1-amine], the IC50 in experiment [1] is less than 500 nM; in experiment [2] (Homo sapiens, KYSE-520, 2 h), less than 1000 nM.

For `N[C@@H]1c2cc(F)ccc2CC12CCN(c1nc3ncc(Sc4ccncc4F)nc3[nH]1)CC2` [Example 187, (S)-6-fluoro-1′-(6-((3-fluoropyridin-4-yl)thio)-1H-imidazo[4,5-b]pyrazin-2-yl)-1,3-dihydrospiro[indene-2,4′-piperidin]-1-amine], the IC50 was less than 500 nM in experiment [1] and less than 1000 nM in experiment [2] (Homo sapiens, KYSE-520, 2 h).

As for `Nc1nccc(Sc2cnc3[nH]c(N4CCC5(CC4)Cc4cc(F)c(F)cc4[C@H]5N)nc3n2)c1Cl` [Example 188, (S)-1′-(5-((2-amino-3-chloropyridin-4-yl)thio)-1H-imidazo[4,5-b]pyrazin-2-yl)-5,6-difluoro-1,3-dihydrospiro[indene-2,4′-piperidin]-1-amine], the IC50 in experiment [1] is less than 500 nM; in experiment [2] (Homo sapiens, KYSE-520, 2 h), less than 1000 nM.

Turning to `Nc1nccc(Sc2cnc3[nH]c(N4CCC5(CC4)Cc4ccccc4[C@H]5N)cc3n2)c1Cl` [Example 265, (S)-1′-(2-((2-amino-3-chloropyridin-4-yl)thio)-5H-pyrrolo[2,3-b]pyrazin-6-yl)-1,3-dihydrospiro[indene-2,4′-piperidin]-1-amine], the IC50 in experiment [1] is less than 500 nM; in experiment [2] (Homo sapiens, KYSE-520, 2 h) it was 1000 to 5000 nM.

On to `CNc1nccc(Sc2cnc3[nH]c(N4CCC5(CC4)Cc4ncccc4[C@H]5N)nc3n2)c1Cl` [Example 146, (S)-1′-(5-((3-chloro-2-(methylamino)pyridin-4-yl)thio)-1H-imidazo[4,5-b]pyrazin-2-yl)-5,7-dihydrospiro[cyclopenta[b]pyridine-6,4′-piperidin]-5-amine], for which the IC50 in experiment [1] was less than 500 nM; in experiment [2] (Homo sapiens, KYSE-520, 2 h), less than 1000 nM.

For `CNc1nccc(Sc2cnc3[nH]c(N4CCC5(CC4)Cc4ccccc4[C@H]5N[S@+]([O-])C(C)(C)C)nc3n2)c1Cl` [Example 209, (R)-N-((S)-1′-(5-((3-chloro-2-(methylamino)pyridin-4-yl)thio)-1H-imidazo[4,5-b]pyrazin-2-yl)-1,3-dihydrospiro[indene-2,4′-piperidin]-1-yl)-2-methylpropane-2-sulfinamide], the half-maximal inhibitory concentration (IC50) in experiment [1] was less than 500 nM; in experiment [2] (Homo sapiens, KYSE-520, 2 h), 1000 to 5000 nM; in experiment [2] it was less than 1000 nM.

As to `CC1(N)CCN(c2nc3nc(Sc4ccccc4C(F)(F)F)cnc3[nH]2)CC1` [Example 18, 4-methyl-1-(5-((2-(trifluoromethyl)phenyl)thio)-1H-imidazo[4,5-b]pyrazin-2-yl)piperidin-4-amine], the IC50 in experiment [1] was less than 500 nM; in experiment [2] (Homo sapiens, KYSE-520, 2 h) it was 1000 to 5000 nM.

`N[C@@H]1c2ccccc2CC12CCN(c1nc3nc(Sc4nccnc4Cl)cnc3[nH]1)CC2` [Example 158, (S)-1′-(5-((3-chloropyrazin-2-yl)thio)-1H-imidazo[4,5-b]pyrazin-2-yl)-1,3-dihydrospiro[indene-2,4′-piperidin]-1-amine]: the IC50 in experiment [1] is less than 500 nM; in experiment [2] (Homo sapiens, KYSE-520, 2 h), less than 1000 nM.

As to `N[C@@H]1c2ccccc2CC12CCN(c1nc3nc(Sc4cccc(Cl)c4Cl)c(Cl)nc3[nH]1)CC2` [Example 259, (S)-1′-(6-chloro-5-((2,3-dichlorophenyl)thio)-1H-imidazo[4,5-b]pyrazin-2-yl)-1,3-dihydrospiro[indene-2,4′-piperidin]-1-amine], the IC50 in experiment [1] was less than 500 nM; in experiment [2] (Homo sapiens, KYSE-520, 2 h), less than 1000 nM.

In the case of `COc1nccc(Sc2cnc3[nH]c(N4CCC5(CC4)Cc4ccccc4[C@H]5N)nc3n2)c1Cl` [Example 239, (S)-1′-(5-((3-chloro-2-methoxypyridin-4-yl)thio)-1H-imidazo[4,5-b]pyrazin-2-yl)-1,3-dihydrospiro[indene-2,4′-piperidin]-1-amine], the IC50 was less than 500 nM in experiment [1] and 1000 to 5000 nM in experiment [2] (Homo sapiens, KYSE-520, 2 h).

On to `N[C@@H]1c2cccnc2CC12CCN(c1nc3ncc(Sc4cc(Cl)c5[nH]c(=O)oc5c4)nc3[nH]1)CC2` [Example 168, (S)-6-((2-(5-amino-5,7-dihydrospiro[cyclopenta[b]pyridine-6,4′-piperidin]-1′-yl)-1H-imidazo[4,5-b]pyrazin-6-yl)thio)-4-chlorobenzo[d]oxazol-2(3H)-one], for which the IC50 was less than 500 nM in experiment [1] and greater than 5000 nM in experiment [2] (Homo sapiens, KYSE-520, 2 h).

In the case of `Cc1nc2nc(N3CCC(C)(N)CC3)[nH]c2nc1Sc1cccc(Cl)c1Cl` [Example 133, 1-(5-((2,3-dichlorophenyl)thio)-6-methyl-1H-imidazo[4,5-b]pyrazin-2-yl)-4-methylpiperidin-4-amine], the half-inhibitory concentration (IC50) in experiment [1] is less than 500 nM; in experiment [2] (Homo sapiens, KYSE-520, 2 h), greater than 5000 nM.

In the case of `N[C@@H]1c2ccccc2CC12CCN(c1nc3nc(Sc4ccc5cc[nH]c5c4)cnc3[nH]1)CC2` [Example 193, (S)-1′-(5-((1H-indol-6-yl)thio)-1H-imidazo[4,5-b]pyrazin-2-yl)-1,3-dihydrospiro[indene-2,4′-piperidin]-1-amine], the IC50 is less than 500 nM in experiment [1] and 1000 to 5000 nM in experiment [2] (Homo sapiens, KYSE-520, 2 h).

With `CNc1nccc(Sc2cnc3[nH]c(N4CCC5(CC4)Cc4ccccc4[C@H]5N)nc3n2)c1C#N` [Example 201, (S)-4-((2-(1-amino-1,3-dihydrospiro[indene-2,4′-piperidin]-1′-yl)-1H-imidazo[4,5-b]pyrazin-5-yl)thio)-2-(methylamino)nicotinonitrile], the IC50 in experiment [1] is less than 500 nM; in experiment [2] (Homo sapiens, KYSE-520, 2 h), less than 1000 nM.

For `CC(=O)Nc1nccc(Sc2cnc3[nH]c(N4CCC5(CC4)Cc4ccccc4[C@H]5N)nc3n2)c1Cl` [Example 147, (S)-N-(4-((2-(1-amino-1,3-dihydrospiro[indene-2,4′-piperidin]-1′-yl)-1H-imidazo[4,5-b]pyrazin-5-yl)thio)-3-chloropyridin-2-yl)acetamide], the IC50 in experiment [1] is less than 500 nM; in experiment [2] (Homo sapiens, KYSE-520, 2 h) it was less than 1000 nM.

As to `N[C@@H]1c2ccccc2CC12CCN(c1nc3nc(Sc4ccncc4OC(F)(F)F)cnc3[nH]1)CC2` [Example 226, (S)-1′-(5-((3-(trifluoromethoxy)pyridin-4-yl)thio)-1H-imidazo[4,5-b]pyrazin-2-yl)-1,3-dihydrospiro[indene-2,4′-piperidin]-1-amine], the IC50 in experiment [1] is less than 500 nM; in experiment [2] (Homo sapiens, KYSE-520, 2 h), less than 1000 nM.

With `N#CC1CN(c2nccc(Sc3cnc4[nH]c(N5CCC6(CC5)Cc5ccccc5[C@H]6N)nc4n3)c2Cl)C1` [Example 191, (S)-1-(4-((2-(1-amino-1,3-dihydrospiro[indene-2,4′-piperidin]-1′-yl)-1H-imidazo[4,5-b]pyrazin-5-yl)thio)-3-chloropyridin-2-yl)azetidine-3-carbonitrile], the IC50 in experiment [1] was less than 500 nM; in experiment [2] (Homo sapiens, KYSE-520, 2 h), less than 1000 nM.

In the case of `N[C@@H]1c2ccccc2CC12CCN(c1nc3nc(Sc4cccnc4C(F)(F)F)cnc3[nH]1)CC2` [Example 107, (S)-1′-(5-((2-(trifluoromethyl)pyridin-3-yl)thio)-1H-imidazo[4,5-b]pyrazin-2-yl)-1,3-dihydrospiro[indene-2,4′-piperidin]-1-amine], the IC50 in experiment [1] was less than 500 nM; in experiment [2] (Homo sapiens, KYSE-520, 2 h), less than 1000 nM.

As for `Cc1nc(COc2cnccc2Sc2cnc3[nH]c(N4CCC5(CC4)Cc4ccccc4[C@H]5N)nc3n2)co1` [Example 227, (S)-1′-(5-((3-((2-methyloxazol-4-yl)methoxy)pyridin-4-yl)thio)-1H-imidazo[4,5-b]pyrazin-2-yl)-1,3-dihydrospiro[indene-2,4′-piperidin]-1-amine], the IC50 was less than 500 nM in experiment [1] and greater than 5000 nM in experiment [2] (Homo sapiens, KYSE-520, 2 h).

For the molecule `N[C@@H]1c2ccccc2CC12CCN(c1[nH]c3ncc(Sc4cccc(Cl)c4Cl)nc3c1Cl)CC2` [Example 248, (S)-1′-(7-chloro-2-((2,3-dichlorophenyl)thio)-5H-pyrrolo[2,3-b]pyrazin-6-yl)-1,3-dihydrospiro[indene-2,4′-piperidin]-1-amine], the half-maximal inhibitory concentration (IC50) in experiment [1] was less than 500 nM; in experiment [2] (Homo sapiens, KYSE-520, 2 h), 1000 to 5000 nM.

With `N[C@@H]1c2ccccc2CC12CCN(c1nc3ncc(Sc4cccc5[nH]ccc45)nc3[nH]1)CC2` [Example 198, (S)-1′-(6-((1H-indol-4-yl)thio)-1H-imidazo[4,5-b]pyrazin-2-yl)-1,3-dihydrospiro[indene-2,4′-piperidin]-1-amine], the half-maximal inhibitory concentration (IC50) in experiment [1] is less than 500 nM; in experiment [2] (Homo sapiens, KYSE-520, 2 h), less than 1000 nM.

On to `COc1cc(Sc2cnc3[nH]c(N4CCC5(CC4)Cc4ccccc4[C@H]5N)nc3n2)c(Cl)cn1` [Example 242, (S)-1′-(5-((5-chloro-2-methoxypyridin-4-yl)thio)-1H-imidazo[4,5-b]pyrazin-2-yl)-1,3-dihydrospiro[indene-2,4′-piperidin]-1-amine], for which the IC50 in experiment [1] fell in the range of 500 to 3000 nM; in experiment [2] (Homo sapiens, KYSE-520, 2 h), 1000 to 5000 nM.

For the origin of these results see patent US20220289753A1, “SHP2 INHIBITORS” (IRBM S.P.A., priority 2019, published 2022).
